pEC50: −log10 of the molar value. Bounds are passed on as bounds.

Series [1] has as its system SiHa. Briefly: Inhibition of DNA synthesis in HPV-transformed human SiHa cells assessed as decrease in BrdU incorporation after 24 to 27 hrs by ELISA. It is filed as functional, cell-based.
The test system of series [2] is SiHa. Briefly: Inhibition of DNA synthesis in HPV-transformed human SiHa cells assessed as decrease in BrdU incorporation after 6 to 9 hrs by ELISA. It is filed as functional, cell-based.
The subject of series [3] is SiHa. The series can be described thus: Inhibition of DNA synthesis in HPV-transformed human SiHa cells assessed as decrease in BrdU incorporation after 3 to 6 hrs by ELISA. The class given is functional, cell-based.
Series [4] has as its system SiHa. The series can be described thus: Inhibition of DNA synthesis in HPV-transformed human SiHa cells assessed as decrease in BrdU incorporation after 72 to 75 hrs by ELISA. It is filed as functional, cell-based.
Series [5] is described as follows: Antiproliferative activity against HPV-transformed human MS751 cells after 7 days by SRB assay. It is filed as functional, cell-based. The conditions noted are these: MS751, 168 h.
In series [6] the test system is HeLa. The series can be described thus: Antiproliferative activity against HPV-transformed human HeLa cells after 7 days by SRB assay. The conditions noted are these: 168 h. The class given is functional, cell-based.
A short description of series [7]: Antiproliferative activity against human CK after 7 days by SRB assay.
Series [8] in a line: Antiproliferative activity against HPV-transformed human C4I cells after 7 days by SRB assay. The conditions noted are these: C-4I, 168 h. It is filed as functional, cell-based.
The subject of series [9] is Ca-Ski. Briefly: Antiproliferative activity against HPV-transformed human CaSki cells after 7 days by SRB assay. It is filed as functional, cell-based. The conditions noted are these: 168 h.
Series [10] relates to SiHa. The series can be described thus: Inhibition of DNA synthesis in HPV-transformed human SiHa cells assessed as decrease in BrdU incorporation after 48 to 51 hrs by ELISA. It is filed as functional, cell-based.
Series [11] concerns SCC-4. Briefly: Antiproliferative activity against HPV-non-transformed human SCC4 cells after 7 days by SRB assay. It is filed as functional, cell-based. The conditions noted are these: SCC-4, 168 h.
Series [12] is described as follows: Antiproliferative activity against NHBE cells after 7 days by SRB assay. It is filed as cell-based. The conditions noted are these: Homo sapiens, 168 h.
Series [13] in a line: Antiproliferative activity against human lung fibroblast after 7 days by SRB assay. The conditions noted are these: 168 h.
Series [14] can be described thus: Antiproliferative activity against human PHK after 7 days by SRB assay.
Series [15] relates to SCC-9. Briefly: Antiproliferative activity against HPV-non-transformed human SCC9 cells after 7 days by SRB assay. The class given is functional, cell-based. The conditions noted are these: SCC-9, 168 h.
For series [16], the system named is SiHa. Briefly: Inhibition of DNA synthesis in HPV-transformed human SiHa cells assessed as decrease in BrdU incorporation after 3 hrs by ELISA. The class given is functional, cell-based.
Series [17] in a line: Antiproliferative activity against PHF after 7 days by SRB assay. Also noted: species or system Homo sapiens.
Series [18] concerns SiHa. Briefly: Antiproliferative activity against HPV-transformed human SiHa cells after 7 days by SRB assay. The class given is functional, cell-based. The conditions noted are these: 168 h.
Series [19] deals with HT-3. The series can be described thus: Antiproliferative activity against HPV-non-transformed human HT3 cells after 7 days by SRB assay. The conditions noted are these: HT-3, 168 h. The class given is functional, cell-based.
Series [20] relates to ME-180. The series can be described thus: Antiproliferative activity against HPV-transformed human ME180 cells after 7 days by SRB assay. It is filed as functional, cell-based. The conditions noted are these: ME-180, 168 h.
Series [21] has as its system SiHa. The series can be described thus: Induction of apoptosis in HPV-transformed human SiHa cells assessed as viable cells at 180000 nM after 3 days by propidium iodide staining-based flow cytometry. It is filed as functional. The conditions noted are these: 72 h, read-out: Activity.
For series [22], the system named is SiHa. Briefly: Induction of apoptosis in HPV-transformed human SiHa cells assessed as apoptotic cells at 180000 nM after 3 days by propidium iodide staining-based flow cytometry. It is filed as functional.
In series [23] the test system is SiHa. The series can be described thus: Induction of apoptosis in HPV-transformed human SiHa cells assessed as viable cells at 180000 nM after 7 days by propidium iodide staining-based flow cytometry. The class given is functional. The conditions noted are these: 168 h, read-out: Activity.
Series [24] has as its system SiHa. Briefly: Induction of apoptosis in HPV-transformed human SiHa cells assessed as apoptotic cells at 180000 nM after 7 days by propidium iodide staining-based flow cytometry. The class given is functional.
Series [25] relates to SiHa. The series can be described thus: Cell cycle arrest in HPV-transformed human SiHa cells assessed as accumulation at G0/G1 phase at 10 times EC50 after 48 hrs by flow cytometry. The class given is functional.
The nature of series [26]: Cell cycle arrest in human PHK cells assessed as accumulation at G0/G1 phase at 10 times EC50 after 48 hrs by flow cytometry. The class given is cell-based.
The nature of series [27]: Cell cycle arrest in human PHK cells assessed as accumulation at S phase at 10 times EC50 after 48 hrs by flow cytometry. The class given is cell-based.
The test system of series [28] is SiHa. Briefly: Cell cycle arrest in HPV-transformed human SiHa cells assessed as accumulation at G2/M phase at 10 times EC50 after 48 hrs by flow cytometry. It is filed as functional.
Series [29] relates to SiHa. Briefly: Cell cycle arrest in HPV-transformed human SiHa cells assessed as accumulation at S phase at 10 times EC50 after 48 hrs by flow cytometry. It is filed as functional.
A short description of series [30]: Cell cycle arrest in human PHK cells assessed as accumulation at G2/M phase at 10 times EC50 after 48 hrs by flow cytometry. It is filed as cell-based.

Consider `Nc1nc(NC2CC2)c2ncn(CCOCP(=O)(O)O)c2n1`, for which the pEC50 in series [1] is 5.64; in series [2], 5.82; in series [3], 5.73; in [4], below 4.70; in series [5] it was 5.48; in [6], 5.16. Besides, the pEC50 in series [7] was 5.86; in [8] it was 5.88; in series [9], 5.85; in [10] it was 5.58; in series [11], 5.84; in series [12], 5.64. In addition, the pEC50 in [13] is 5.32; in series [14], 5.43; in series [15], 5.00; in series [16] it was 5.05; in [17], 4.90; in series [18], 6.54. Moreover, the pEC50 was 5.15 in [19] and 5.08 in [20].
For the compound `Nc1ccn(C[C@@H](CO)OCP(=O)(O)O)c(=O)n1.O.O` [CIDOFOVIR], the pEC50 is below 4.00 in series [5]; below 4.00 in series [6]; 4.29 in series [7]; 5.51 in [8]; below 4.00 in series [9]; below 4.00 in [11]. In addition, the negative logarithm of the EC50 (pEC50) in series [12] is 4.50; in series [13], 4.63; in [14] it was 4.84; in series [15] it was below 4.00; in series [17], below 4.00; in series [18] it was below 4.00. Moreover, the pEC50 in [19] is below 4.00; in series [20], 4.19. The values for the viability at 180 µM in series [21] and in series [23] were 98.1% and 62.2%, respectively. Further, the Activity is given as 1.6% in series [22] and 37.2% in [24].
Turning to `Nc1nc2c(ncn2CCOCP(=O)(O)O)c(=O)[nH]1` [GS-438], the pEC50 in [1] is 5.44; in series [2] it was 5.59; in series [3] it was 5.52; in series [4], 5.00; in [5] it was 5.55; in [6] it was 5.67. Moreover, the negative logarithm of the EC50 (pEC50) in series [7] is below 4.00; in [8], 6.33; in series [9], 5.26; in series [10], 5.22; in series [11], 6.80; in series [12], 6.17. The pEC50 in series [13] is 6.54; in [14] it was 6.26; in series [15] it was 5.50; in series [16], 5.05; in [17], 5.80; in series [18], 6.68. The pEC50 in [19] is 5.71; in [20], 5.59.
Regarding `COc1cc([C@@H]2c3cc4c(cc3[C@H](O)[C@H]3COC(=O)[C@H]23)OCO4)cc(OC)c1OC` [PODOFILOX], the Activity was 20.4% in [25]; 66.8% in [26]; 16.7% in series [27]; 45% in series [28]; 34.7% in series [29]; 16.5% in [30].

Values taken from ChEMBL document CHEMBL1649500, “GS-9191 is a novel topical prodrug of the nucleotide analog 9-(2-phosphonylmethoxyethyl)guanine with antiproliferative activity and possible utility in the treatment of human papillomavirus lesions” (Antimicrob Agents Chemother, 2009).
